Experimental data reported in US10370364B1, “Substituted chromenes for treatment of fibrosis or non-alcoholic steatohepatitis” (OSTEONEUROGEN INC., priority 2018, dated 2019).

System: STAM mice
Experiment: Non-alcoholic steatohepatitis animal model (STAM mice), NAFLD activity score
Format: in vivo
Settings: 50 mpk oral, Formulation Example 2, once a day five times a week
Experimental: STAM mice (SMC Laboratories, Inc., Japan), which are non-alcoholic steatohepatitis animal models, were used as experimental animals. These animal models were administered with streptozotocin immediately after birth, and fed with high-fat-diet after 3 weeks. Then, in the mouse model, non-alcoholic steatohepatitis occurred at 6 to 9 weeks, and liver fibrosis, cirrhosis and liver cancer occurred within 9 to 12 weeks.
Over 6 to 9 weeks after administration of streptozotocin, the compound of the present invention, dissolved in a mixture solution of Tween80 and 0.5% CMC aqueous solution (1:99 (v/v)) (Formulation Example 2), was orally administered to the animal models once a day (five times a week). As controls, telmisartan and OCA (obeticholic acid) were administered in the same manner.
At […] after administration of streptozotocin (a time point after 3-week administration of the compound), the mice were sacrificed, the liver of each mouse was dissected, the invasion of inflammatory cells was observed by […] of the liver tissue, and fibrosis of the liver tissue was observed by Sirius Red staining (see FIG. 42). In addition, the degrees of inflammation, fibrosis, liver cell ballooning and adipose accumulation observed were measured, data integration was performed, and the NAFLD (nonalcoholic fatty liver disease) activity score was statistically processed by t-test.

## COc1ccc(-c2cc(=O)c3c(O)c(OC)c(OCCN4CCNC(=O)C4)cc3o2)cc1OC [Compound 1, 4-(2-((2-(3,4-dimethoxyphenyl)-5-hydroxy-6-methoxy-4-oxo-4H-chromen-7-yl)oxy)ethyl)piperazin-2-one]
  NAFLD activity score (t-test): statistically significant anti-NASH effects
